These results are taken from patent US7098039B1, “Analysis of a sample to determine its characteristic cycle time” (The Victoria University of Manchester, priority 1998, dated 2006).

Read-outs that look alike come from different tables or passages of the source.

The assay concerns peptide sequence VCDWWGWGIC (mimic of the binding of drugs by the drug efflux protein P-glycoprotein). The assay is described as follows: Quenching of the natural tryptophan fluorescence of peptide […] on drug binding (FIG. 7h titration). The following applies: for relative intensity of the peak at 359.25 nm, indicating the degree of quenching: peptide 49.1 μM, 0.1 M Tris pH 7.5. From the text:
The system illustrated in FIG. 7 may be a drug binding to a protein or peptide comprising fluorescent amino acids at the site of binding.
The number in brackets, following each titration, is the relative intensity of the peak at 359.25 nm, indicating the degree of quenching.

Setting [1] is: peptide VCDWWGWGIC, linear sequence or cyclised, result in words.

On to `CN1C(=O)CN=C(c2ccccc2)c2cc(Cl)ccc21` [Diazepam], for which the “natural tryptophan fluorescence of the peptide quenched by the drug” value (from here on “natural tryptophan fluorescence”) is on record as “quenched”.
Take `C[C@H]1O[C@@H](O[C@H]2[C@@H](O)C[C@H](O[C@H]3[C@@H](O)C[C@H](O[C@H]4CC[C@@]5(C)[C@H](CC[C@@H]6[C@@H]5C[C@@H](O)[C@]5(C)[C@@H](C7=CC(=O)OC7)CC[C@]65O)C4)O[C@@H]3C)O[C@@H]2C)C[C@H](O)[C@@H]1O` [Digoxin]: the “natural tryptophan fluorescence” value under setting [1] is on record as “quenched”.
`COc1cccc2c1C(=O)c1c(O)c3c(c(O)c1C2=O)C[C@@](O)(C(=O)CO)C[C@@H]3O[C@H]1C[C@H](N)[C@H](O)[C@H](C)O1` [Doxorubicin]: under setting [1], the “natural tryptophan fluorescence” value is “quenched”. Besides, the “relative intensity of the peak at 359.25 nm, indicating the degree of quenching” value by setting is: (peptide:doxorubicin 1:0.1, 2.9 ml, without doxorubicin normalised at 999.99) 917.99; (peptide:doxorubicin 1:0.2, without doxorubicin 999.99) 835.53; (peptide:doxorubicin 1:0.3, without doxorubicin 999.99) 769.34; (peptide:doxorubicin 1:0.4, without doxorubicin 999.99) 704.25; (peptide:doxorubicin 1:0.5, without doxorubicin 999.99) 633.91; (peptide:doxorubicin 1:0.6, without doxorubicin 999.99) 594.31. Besides, the “relative intensity of the peak at 359.25 nm, indicating the degree of quenching” value by setting is: (peptide:doxorubicin 1:0.7, without doxorubicin 999.99) 547.73; (peptide:doxorubicin 1:0.8, without doxorubicin 999.99) 498.54; (peptide:doxorubicin 1:0.9, without doxorubicin 999.99) 457.70; (peptide:doxorubicin 1:1, without doxorubicin 999.99) 415.96; (peptide:doxorubicin 1:1.1, without doxorubicin 999.99) 390.24.
In the case of `CC[C@H]1OC(=O)[C@H](C)[C@@H](O[C@H]2C[C@@](C)(OC)[C@@H](O)[C@H](C)O2)[C@H](C)[C@@H](O[C@@H]2O[C@H](C)C[C@H](N(C)C)[C@H]2O)[C@](C)(O)C[C@@H](C)C(=O)[C@H](C)[C@@H](O)[C@]1(C)O` [Erythromycin], the “natural tryptophan fluorescence” value under setting [1] was “quenched”.
In the case of `O=c1c(-c2ccc(O)cc2)coc2cc(O)cc(O)c12` [Genistein], the “natural tryptophan fluorescence” value (peptide […], linear sequence or cyclised, result in words) is recorded as “quenched”.
Regarding `N[C@@H](Cc1ccc(N(CCCl)CCCl)cc1)C(=O)O` [Melphalan], the “natural tryptophan fluorescence” value under setting [1] is “quenched”.
Take `CO[C@@H]1[C@@H](OC(N)=O)[C@@H](O)[C@H](Oc2ccc3c(O)c(NC(=O)c4ccc(O)c(CC=C(C)C)c4)c(=O)oc3c2C)OC1(C)C` [Novobiocin]: under setting [1], the “natural tryptophan fluorescence” value was “quenched”.
In the case of `COC(=O)[C@H]1[C@H]2C[C@@H]3c4[nH]c5cc(OC)ccc5c4CCN3C[C@H]2C[C@@H](OC(=O)c2cc(OC)c(OC)c(OC)c2)[C@@H]1OC` [Reserpine], under setting [1], the “natural tryptophan fluorescence” value was “quenched”.
Still for that read-out and setting: the entry for `CC[C@]1(O)C[C@@H]2CN(CCc3c([nH]c4ccccc34)[C@@](C(=O)OC)(c3cc4c(cc3OC)N(C)[C@H]3[C@@](O)(C(=O)OC)[C@H](OC(C)=O)[C@]5(CC)C=CCN6CC[C@]43[C@@H]65)C2)C1` [Vinblastine] is “quenched”; for Cyclosporin A it is “quenched”.
